Results: paper PMC5007466, “VCP recruitment to mitochondria causes mitophagy impairment and neurodegeneration in models of Huntington's disease” (Nature Communications, 2016)

Experiments:
[1] = tested on: R6/2 mice; test: VCP mitochondrial level, R6/2 mouse striatum; assay type: in vivo; settings: R6/2, 3 mg kg^−1 per day from 5 to 9 weeks versus TAT, n=6
Description: Cells were washed with cold PBS and incubated on ice for 30 min in a lysis buffer (250 mM sucrose, 20 mM HEPES-NaOH, pH 7.5, 10 mM KCl, 1.5 mM MgCl2, 1 mM EDTA, protease inhibitor cocktail and phosphatase inhibitor cocktail). Mouse brains were minced and homogenized in the lysis buffer and then placed on ice for 30 min. Collected cells or tissue were disrupted 20 times by repeated aspiration through a 25-gauge needle, followed by a 30-gauge needle. The homogenates were spun at 800 g for 10 min at 4 °C, and the resulting supernatants were spun at 10,000 g for 20 min at 4 °C. The pellets were washed with lysis buffer and spun at 10,000 g again for 20 min at 4 °C. The final pellets were suspended in lysis buffer containing 1% Triton X-100 and were mitochondrial-rich lysate fractions. The supernatant was centrifuged at 100,000 g, 4 °C, for 1 h, the pellets were suspended in lysis buffer containing 1% Triton X-100 as ER fractions. The final supernatant was cytosolic fractions. The mitochondrial proteins VDAC, the ER protein WFS1 and the cytosolic protein Enolase were used as loading controls for mitochondrial, ER and cytosolic fractions, respectively.
Male R6/2 mice and their wt littermates (4 weeks old) were purchased from Jackson Laboratories (Bar Harbor, ME; B6CBA-TgN (HD exon 1)62; JAX stock number: 006494). […]
Protein concentrations were determined by Bradford assay. […]

[2] = tested on: HD patient-iPS cell derived neurons; test: Lysosomal activity (Lyso-ID Red); assay type: cell-based, human; settings: 1 μM per day for 5 days
Description: iPS cells from a normal subject and a HD patient (carrying 41 CAG repeats) were differentiated into neurons using the protocol from our previous studies. Briefly, iPS cells were plated onto 6-well plates precoated with 2.5% Matrigel and allowed to reach 90% confluence in feeder-free medium. For the first 10 days, cells were treated with SB431542 (10 μM; Tocris Bioscience) and Noggin (100 ng/ml) in Neural Media (NM) containing Neurobasal and DMEM (1:1), B27 supplement minus vitamin A (50 × , Invitrogen), N2 supplement (100 × , Invitrogen), GlutaMax (Invitrogen, 100 × ), FGF2 ([…]) and EGF ([…]), 100 units per ml penicillin and 100 μg ml^−1 streptomycin). […]
To determine mitochondrial mass in cultures, cells were stained with antibodies against Tom20 or stained with Mitotracker green. The fluorescent density of Tom20 (1:500) or mitotracker green was quantitated using NIH Image J software. […] The images were visualized by microscope and quantitation of the density of red fluorescence was carried out using NIH ImageJ software. For immunocytochemistry study, at least 100 cells per group were counted and quantitated by an observer blind to experimental conditions.

[3] = tested on: R6/2 mice; test: Spontaneous locomotion, R6/2; assay type: in vivo, mouse; settings: R6/2, 13 weeks of age, 3 mg kg^−1 per day s.c. pump from 5 weeks, n=15
Description: Male R6/2 mice and their wt littermates (4 weeks old) were purchased from Jackson Laboratories (Bar Harbor, ME; B6CBA-TgN (HD exon 1)62; JAX stock number: 006494). These mice (C57BL/6 and CBA genetic background) are transgenic for the 5′ end of the human HD gene carrying 100–150 glutamine (CAG) repeats.
(§1) Male hemizygous R6/2 mice (Tg) and their age-matched wt littermates (5-week-old) were implanted with a 28-day osmotic pump (Alzet, Cupertino CA) containing TAT control peptide or HV-3 peptide, which delivered peptides to the mice at a rate of 3 mg kg^−1 per day. The first pump was implanted subcutaneously in the back of 5-week-old mice between the shoulders and replaced once, after 4 weeks.
Gross locomotor activity was assessed in R6/2 mice and age-matched wt littermates at the ages of 13 weeks and in YAC128 mice and age-matched wt littermates at the ages of 2, 3, 6, 9, and 12 months. In an activity chamber (Omnitech Electronics, Inc), mice were placed in the center of the chamber and allowed to explore while being tracked by an automated beam system (Vertax, Omnitech Electronics Inc). Distance moved, horizontal, vertical, and rearing activities were recorded. Because R6/2 mice were sensitive to changes in environment and handling, we only conducted one-hour locomotor activity analysis for R6/2 mice and wt littermates. […]

[4] = tested on: wt mice (YAC128 littermates); test: Motor activity of wt littermates of YAC128; assay type: in vivo, mouse; settings: 3 to 12 months of age, 3 mg/kg/day
Description: YAC128 mice (Tg) and their age-matched wt littermates were implanted with an osmotic pump containing TAT control peptide or HV-3 peptide (3 mg/kg/day, each) starting from the age of 3 months. The pump was replaced once every month. By the age of 12 months, the treatments were terminated and the mouse samples were harvested for analysis.
Gross locomotor activity was assessed in R6/2 mice and age-matched wt littermates at the ages of 13 weeks and in YAC128 mice and age-matched wt littermates at the ages of 2, 3, 6, 9, and 12 months. In an activity chamber (Omnitech Electronics, Inc), mice were placed in the center of the chamber and allowed to explore while being tracked by an automated beam system (Vertax, Omnitech Electronics Inc). Distance moved, horizontal, vertical, and rearing activities were recorded. Because R6/2 mice were sensitive to changes in environment and handling, we only conducted one-hour locomotor activity analysis for R6/2 mice and wt littermates. We performed 24 h of locomotor activity analysis for YAC128 mice and their wt littermates.
The motor coordination and balance of YAC128 mice were tested on an accelerating Rotarod (IITC Life Sciences, Serials 8) at the ages of 2, 3, 6, 9 and 12 months. Training and baseline testing for motor function tasks were conducted at 2 months of age. […]

[5] = tested on: R6/2 mice; test: DARPP-32 protein level in R6/2 striatal extracts; assay type: in vivo, mouse; settings: 3 mg kg^−1 per day, n=6
Description: as §1
Protein concentrations were determined by Bradford assay. Protein was resuspended in Laemmli buffer, loaded on SDS–PAGE, and transferred onto nitrocellulose membranes. Membranes were probed with the indicated antibodies, followed by visualization with ECL. Representative blots have been cropped for presentation. Images of full-size blots are presented in Supplementary Fig. 9.

In the case of CSCC[C@H](NC(=O)[C@@H](NC(=O)[C@H](CC(C)C)NC(=O)[C@@H](NC(=O)[C@H](Cc1c[nH]cn1)NC(=O)CCCCCNC(=O)[C@H](CCCNC(=N)N)NC(=O)[C@H](CCCNC(=N)N)NC(=O)[C@H](CCCNC(=N)N)NC(=O)[C@H](CCC(N)=O)NC(=O)[C@H](CCCNC(=N)N)NC(=O)[C@H](CCCNC(=N)N)NC(=O)[C@H](CCCCN)NC(=O)[C@H](CCCCN)NC(=O)[C@H](CCCNC(=N)N)NC(=O)CNC(=O)[C@@H](N)Cc1ccc(O)cc1)C(C)C)C(C)C)C(=O)N[C@@H](CS)C(=O)N[C@@H](C)C(=O)N[C@H](C(N)=O)[C@@H](C)O [HV-3], the “VCP translocation to mitochondria in striatum” value [1] is reported as “suppressed the VCP translocation to mitochondria”, the lysosome hyperactivity [2] is reported as “corrected these aberrant events” and the “spontaneous locomotion (total distance, horizontal and vertical activities)” value [3] is reported as “markedly corrected these motor deficits”. The “motor activity of wt mice” value [4] was “did not affect motor activity in wt mice” and the DARPP-32 protein level [5] was “significantly increased DARPP-32 levels in the two mouse models”.
